Data as given in the supplement of paper PMC10307832.

Legend:
Experiment in all cases: relative viability (nuclei count vs DMSO), 5 days (fraction); higher = more cells survive
[1] = compound: CN1CCN(CC1)C2=CC(=C(C=C2)NC3=NC=C4C(=N3)N(C5=CC=CC=C5C(=O)N4C)C)OC [XMD8-85] + CC(=O)c1c(C)c2cnc(Nc3ccc(N4CCNCC4)cn3)nc2n(C2CCCC2)c1=O [Palbociclib] (partner 0.5 µM)
Outline: (§1)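 Lung cancer cell lines in 1536-well plates were dosed by pin tool the day after seeding, either with one drug alone or with a fixed anchor-drug dose plus five library-drug doses (not always all listed) in √10 steps. After 5 days, cells were fixed and their nuclei stained in one step (final 0.05% Triton X-100, 1% formaldehyde, 1 ug/ml Hoechst), then counted on 4× images. Relative viability is the nuclei count in treated wells divided by that in vehicle wells. Values are medians of duplicate plates.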

[2] = compound: O=C(O)C(Cc1ccccc1[N+](=O)[O-])=NNc1nc(-c2ccc(Cl)c(Cl)c2)cs1 (mixture of isomers) [4EGI-1] + Nc1ncn([C@H]2C[C@H](O)[C@@H](CO)O2)c(=O)n1 [Decitabine] (partner 2 µM)
Outline: as §1

[3] = compound: O=C(O)C(Cc1ccccc1[N+](=O)[O-])=NNc1nc(-c2ccc(Cl)c(Cl)c2)cs1 (mixture of isomers) [4EGI-1] + C[C@@H](Oc1cc(-c2cnn(C3CCNCC3)c2)cnc1N)c1c(Cl)ccc(F)c1Cl [Crizotinib] (partner 1 µM)
Outline: as §1

[4] = compound: CN1CCN(CC1)C2=CC(=C(C=C2)NC3=NC=C4C(=N3)N(C5=CC=CC=C5C(=O)N4C)C)OC [XMD8-85] + NC(=O)Nc1cc(-c2cccc(F)c2)sc1C(=O)N[C@H]1CCCNC1 [AZD7762] (partner 0.2 µM)
Outline: as §1

Cell Line | relative viability ([1]; first compound 0.08 µM) | relative viability ([1]; first compound 0.253 µM) | relative viability ([1]; first compound 0.8 µM) | relative viability ([1]; first compound 2.53 µM) | relative viability ([1]; first compound 8 µM) | relative viability ([2]; first compound 0.5 µM) | relative viability ([2]; first compound 1.581 µM) | relative viability ([2]; first compound 5 µM) | relative viability ([2]; first compound 15.81 µM) | relative viability ([2]; first compound 50 µM) | relative viability ([3]; first compound 0.5 µM) | relative viability ([3]; first compound 1.581 µM) | relative viability ([3]; first compound 5 µM) | relative viability ([3]; first compound 15.81 µM) | relative viability ([3]; first compound 50 µM) | relative viability ([4]; first compound 0.08 µM) | relative viability ([4]; first compound 0.253 µM) | relative viability ([4]; first compound 0.8 µM) | relative viability ([4]; first compound 2.53 µM) | relative viability ([4]; first compound 8 µM)
NCI-H1437 | 0.295 | 0.311 | 0.289 | 0.309 | 0.203 | 0.58 | 0.593 | 0.544 | 0.435 | 0.221 | 0.931 | 0.9 | 0.77 | 0.837 | 0.315 | 1.11 | 1.13 | 1.15 | 1.09 | 0.886
NCI-H1651 | 0.517 | 0.534 | 0.475 | 0.468 | 0.405 | 0.626 | 0.553 | 0.734 | 0.576 | 0.286 | 0.853 | 0.823 | 0.911 | 0.803 | 0.836 | 0.46 | 0.431 | 0.47 |  | 0.433
NCI-H1666 | 0.679 | 0.656 | 0.606 | 0.632 | 0.645 | 0.749 | 0.609 | 0.758 | 0.564 | 0.495 | 1.12 | 1.03 | 1.19 | 0.632 | 0.253 | 0.836 | 0.87 |  | 1.01 | 0.694
NCI-H1734 | 0.315 | 0.329 |  | 0.384 | 0.281 | 0.569 | 0.535 | 0.519 | 0.463 | 0.29 | 0.817 | 0.695 | 0.72 | 0.605 | 0.437 | 0.562 | 0.534 | 0.529 | 0.626 | 
NCI-H1755 | 0.47 | 0.445 | 0.432 | 0.449 | 0.393 | 0.718 | 0.676 | 0.654 | 0.697 | 0.618 | 0.854 | 0.824 | 0.875 | 0.836 | 0.318 | 0.542 | 0.663 | 0.382 | 0.519 | 0.512
NCI-H1915 | 0.721 | 0.529 | 0.537 | 0.549 | 0.371 | 0.27 | 0.226 | 0.259 | 0.247 | 0.215 | 0.924 | 0.62 | 0.847 | 0.907 | 0.477 | 0.735 | 0.71 | 0.683 |  | 0.725
NCI-H1944 | 0.319 | 0.319 | 0.362 | 0.33 | 0.313 | 0.502 |  | 0.427 | 0.404 | 0.344 | 1.18 |  | 1.01 | 0.981 | 0.599 | 0.585 | 0.585 | 0.475 | 0.543 | 0.462
NCI-H1975 | 0.587 | 0.511 | 0.524 | 0.651 | 0.296 | 0.367 | 0.433 | 0.375 | 0.355 | 0.221 | 0.951 | 0.889 | 0.939 | 0.972 | 0.636 | 0.742 | 0.656 | 0.661 | 0.653 | 0.547
NCI-H1993 | 0.564 | 0.595 | 0.612 | 0.692 | 0.61 | 0.74 | 0.548 | 0.588 | 0.619 | 0.462 | 0.943 | 0.776 | 0.92 | 0.629 | 0.688 | 0.772 | 0.716 | 0.959 | 0.844 | 0.818
NCI-H2085 | 0.446 | 0.452 | 0.419 | 0.475 | 0.397 | 0.536 | 0.578 | 0.513 | 0.488 | 0.317 | 0.916 | 0.901 | 0.86 | 0.784 | 0.578 | 0.851 | 0.936 | 0.948 | 0.993 | 0.881
NCI-H2087 | 0.205 | 0.168 | 0.222 | 0.217 | 0.172 | 0.376 | 0.338 | 0.258 | 0.218 | 0.158 | 0.896 | 0.754 | 0.811 | 0.643 | 0.478 | 1.42 | 1.25 | 1.39 | 1.23 | 0.96
NCI-H2126 | 0.415 | 0.394 | 0.378 | 0.32 | 0.387 | 0.611 | 0.65 | 0.617 | 0.472 | 0.488 | 1.03 | 1.05 | 1.03 | 1.03 | 0.777 | 1.06 | 1.12 | 0.962 | 1.05 | 1.06
NCI-H2170 | 0.38 | 0.374 | 0.436 | 0.383 | 0.332 | 0.502 | 0.449 | 0.459 | 0.441 | 0.282 | 1.24 | 1.15 | 1.15 | 0.902 | 0.586 | 0.784 | 0.937 | 0.92 | 0.918 | 0.759
NCI-H2347 | 0.523 | 0.457 | 0.395 | 0.456 | 0.352 | 0.68 | 0.649 | 0.569 | 0.586 | 0.543 | 0.841 | 0.667 | 0.753 | 0.567 | 0.556 | 0.686 |  | 0.732 |  | 0.704
NCI-H2405 | 0.527 |  | 0.543 | 0.528 | 0.509 | 0.791 |  | 0.755 | 0.734 | 0.478 | 0.865 | 0.747 | 0.909 | 0.896 | 0.854 | 0.636 | 0.741 | 0.73 | 0.708 | 0.467
NCI-H3122 | 0.188 | 0.192 | 0.218 | 0.186 | 0.215 | 0.452 | 0.487 | 0.454 | 0.521 | 0.351 | 0.274 | 0.262 | 0.281 | 0.24 | 0.221 | 1.05 | 1.08 | 1.05 | 1.06 | 1.14
